Row | SMILES | melting point
1 | CCN(CC)c1ccc(-c2cc(-c3ccc(C(=O)O)cc3)ccc2OCCCCO)cc1C(C)(C)C | 165 °C
2 | CCCCOc1ccc2c(c1)C(NS(C)(=O)=O)CC(C)(C)O2 (stereo not given) | 123 to 127 °C
3 | N#CCCc1cncnc1N[C@H]1CC[C@@H](c2ccccc2)CC1 | 58 to 59 °C
4 | COc1cc(C2=Nc3ccc(N4CCOCC4)cc3C(=O)C2)ccc1O | 297 to 299 °C
5 | CN1CCN(c2ccc3c(c2)NC(=O)C(C)(c2ccc(N)cc2)C3=O)CC1 (stereo not given) | 265 to 267 °C
6 | COc1cc(NC(=O)C(C#N)=CNc2ccc(OC)c(OCCCCl)c2)c(Cl)cc1Cl | 185 to 192 °C
7 | CC12CCC(=O)C=C1CCC1C2=CCC2(C)C(=C=C(Cl)S(=O)c3ccccc3)CCC12 (stereo not given) | 210 to 213 °C
8 | O=C(CCCC1CCN(Cc2cccc(O)c2)CC1)c1ccc2c(c1)CCN(Cc1ccccc1)CC2 | 88 to 94 °C
9 | O=C(O)C1CCc2c(c3ccccc3n2C(=O)c2ccc3c(c2)OCO3)C1 (stereo not given) | 198 to 200 °C
10 | COc1ccc(N2CCN(c3c(C)c(C)c4c(c3C)OC(C)(C)C4(O)c3ccc(C)cc3)CC2)cc1 (stereo not given) | 162 to 164 °C
11 | CCOC(=O)CNC(=O)CNCc1ccc(-c2cc3ncnc(Nc4ccc5[nH]ccc5c4)c3s2)cc1 | 98 to 115 °C
12 | CCCC(=O)c1cnc2c(OC)cccc2c1Nc1ccc(OC)cc1C | 161 to 163 °C
13 | CCOC1OC(=O)CC1NC(=O)C1CCCN1C(=O)C(NC(=O)c1ccc(N)c(Cl)c1)C(C)(C)C (stereo not given) | 96 to 99 °C
14 | O=C(c1ccc2ccn(CCOc3ccc(CC(OCC(F)(F)F)C(=O)O)cc3)c2n1)C1CC1 (stereo not given) | 113 °C
15 | CCS(=O)(=O)N(C)C1CCCOc2c(C)cc(Cl)cc21 (stereo not given) | 141 to 143 °C
16 | CCCCCCCCCCCCCCCCOCCO | 42 to 44 °C
17 | CC(C)(C)OC(=O)N1CCC(Oc2ccc3c(c2)NC(=O)CC3)CC1 | 158 to 160 °C
18 | CCCOc1ccc(F)cc1-c1ccc(C#N)c(=O)[nH]1 | 242 to 243 °C
19 | COC(=O)c1ccc(-c2nnc(-c3ccc(C(C)(C)C)cc3)o2)c([N+](=O)[O-])c1 | 142 to 143 °C
20 | CN(C)C=Nc1sc(C=O)c(Cl)c1C#N | 186 °C
21 | Clc1ccc(Cn2cnc3c(Cl)ncnc32)cc1Cl | 130 to 133 °C

Row | SMILES | melting point
22 | OCC(O)CNc1ncnc2c1ncn2C1OC(CO)C(O)C1O (stereo not given) | 164 to 165 °C
23 | CN(c1cccc2cc(C3=NCC(C(C)(C)O)S3)[nH]c12)S(=O)(=O)c1cccs1 (stereo not given) | 174 to 175 °C
24 | CN(C)c1ccc(C=C2C=C(C(C)(C)C)C(=O)C(C(C)(C)C)=C2)cc1 | 175 °C
25 | NC(=O)N(O)Cc1sccc1Sc1ccc(Br)cc1 | 124 to 126 °C
26 | COc1ccc(CC(C(O)CCC(C#N)(c2ccc(OC)c(OC)c2)C(C)C)[N+](=O)[O-])cc1OC (stereo not given) | 171 to 173 °C
27 | S=C(NCCN1CCOCC1)Nc1nccs1 | 150 to 152 °C
28 | CC(=CC(=O)c1ccc(C(F)(F)F)cc1[N+](=O)[O-])N(C)C | 122 °C
29 | COc1cc(N)c(Cl)cc1C(=O)NCC1CCN(CCCCCC(=O)c2ccc(C)cc2C)CC1 | 106 to 110 °C
30 | Cc1ccc(S(=O)(=O)NCC2(N3CCN(C)CC3)CCCCC2)cc1 | 128 to 130 °C
31 | O=C1N(Cc2nc(C(F)(F)F)cs2)c2ccccc2C12COc1cc3c(cc12)OCCO3 (stereo not given) | 169 to 170 °C
32 | CCCCCCCCCCc1cc(CCCCCCCCCC)cc(N(CC(=O)O)CC(=O)O)c1 | 78 to 81 °C
33 | COC(=O)c1ccc2cc(-c3ccc(C(=O)OC)c(C45CC6CC(CC(C6)C4)C5)c3)ccc2c1 | 181 to 182 °C
34 | O=C(NCc1ccc(Cl)cc1)c1cn(Cc2cccc(F)c2)c2sc(CN3CCOCC3)cc2c1=O | 214 to 215 °C
35 | CCCn1c(COCC)nc2c(N)nc3ccc(OCCCCCCNC(=O)C(C)C)cc3c21 | 136 to 138 °C
36 | O=C(c1ccc(OC(F)(F)F)cc1)c1ccc(C(F)(F)F)cc1 | 61.5 to 62 °C
37 | Cc1ccc(S(=O)(=O)Oc2ccc(S(=O)(=O)c3ccoc3C(C)C)cc2)cc1 | 94 °C
38 | CCC1(CBr)Cc2cc(OC)c3c(c2C(c2ccccc2)=N1)CC(CC)(CC)O3 (stereo not given) | 108 to 110 °C
39 | N=C1SCCN1c1ccc(N)cc1[N+](=O)[O-] | 138 to 139 °C
40 | CCOC(=O)[C@H](Cc1ccc(-c2c(C)n(C)c(=O)n(C)c2=O)cc1)NC(=O)c1c(Cl)cccc1Cl | 262 to 265 °C
41 | COc1cccc2c1OCC(C#N)=C2 | 105 to 106 °C
42 | Cc1cc2cc(C(=O)O)[nH]c2cc1C | 266 °C

Row | SMILES | melting point
43 | Nc1nc2ccc(SSc3ccc4nc(N)[nH]c4c3)cc2[nH]1 | 245 °C
44 | CCn1cc(C(=O)O)c(=O)c2cc(F)c(N3CCNCC3)c(F)c21 | 234 to 236 °C
45 | CCCCCCCOc1ccc(C(=O)O)c(C)c1 | 74 to 76 °C
46 | CCCSc1nc(NC2CC2c2ccc(OC)c(C)c2)c2nnn(C3CC(O)C(O)C3O)c2n1 (stereo not given) | 135 to 136 °C
47 | CCOC(=O)C1CCN(C(=O)c2ccc(/C=C/C(=O)O)cc2)CC1 | 165 °C
48 | O=c1c2ccc(Cl)cc2[nH]c2c(=O)n(-c3ccc(O)cc3)nc(O)c12 | 393 to 395 °C
49 | CC(=O)O[C@@H]1[C@H](OC(C)=O)[C@@H](C)O[C@H]1n1c(Cl)nc2c(Br)c(Cl)c(Cl)cc21 | 138 to 141 °C
50 | CC1(C)CC(=O)Nc2cc3nc(-c4ccc(C(N)=O)cc4)[nH]c3cc21 | 317 to 319 °C
51 | CCC(CC)OCc1c(-c2ccc(OC(F)F)c(OC3CC3)c2)[nH]c2cn[nH]c(=O)c12 | 133 to 162 °C
52 | O=C(CCCNc1c(C(=O)O)[nH]c2cc(Cl)cc(Cl)c12)c1ccccc1 | 254 to 256 °C
53 | COc1ccc(CN(C)CC(=O)Nc2ccc([N+](=O)[O-])cc2)cc1OC | 120 °C
54 | COc1cc(N)c(Cl)cc1C(=O)NCC1CCN(CCCCCOCc2ccc(Cl)cc2)CC1 | 131 to 132 °C
55 | CC(=O)Oc1ccc(C(=O)Oc2ccc(OC(=O)c3ccc(OC(C)=O)cc3)c(C)c2)cc1 | 128 to 130 °C
56 | CCCCCC(COc1ccc(C(=O)O)cc1)c1ccc2c(c1)C(C)(C)CCS2 (racemic) | 168 to 169 °C
57 | Cc1ccc2c(c1)oc1c(C(=O)NC3CCCCC3)nn(-c3ccc(Cl)cc3Cl)c12 | 140 to 142 °C
58 | CCC1Nc2cc(F)c(F)cc2-n2cccc21 (stereo not given) | 67 to 69 °C
59 | Nc1cc2c(c3ccccc13)C(CCl)CN2C(=O)C(F)(F)F (stereo not given) | 177 °C
60 | CC(=O)OC1CCC2(C)C(=CCC3C2CCC2(C)C(C(C)CCC(=O)O)CCC32)C1 (stereo not given) | 192 to 193 °C
61 | Cc1cccc(-c2ccc(-c3cnn(Cc4ccc([N+](=O)[O-])cc4)c(=O)c3-c3ccc(F)cc3)cc2)c1S(=O)(=O)O | 183 to 184 °C
62 | CCCCCCCC(=O)Oc1ccc(C(=O)O)cc1 | 51 °C

Continued, values first:

Row | melting point | SMILES
63 | 110 to 112 °C | CC(C)(C)NC(=O)N(Cc1ccccc1)CC(O)C(Cc1ccccc1)NC(=O)C(CC(N)=O)NC(=O)c1ccc2ccccc2n1 (stereo not given)
64 | 139 to 140 °C | CN1c2ccccc2C(c2ccccc2Br)=Nc2cccnc21
65 | 85 to 89 °C | OCc1ccc2c(n1)COC(c1ccccc1)O2 (stereo not given)
66 | 188 to 190 °C | COc1ccc(S(=O)(=O)NCc2ccc(-n3c(-c4cccnc4N)nc4cc(Br)cnc43)cc2)cc1
67 | 108 to 110 °C | CCS(=O)c1ccc(-c2nc3n(c2-c2ccncc2)CCC3)cc1 (stereo not given)
68 | 177 to 182 °C | CCOC(=O)C1=C(CS(=O)(=O)c2ccccc2)Nc2ccnc(OC(C)C)c2C1c1ccccc1C(F)(F)F (stereo not given)
69 | 100 to 102 °C | O=C(CCc1ccccc1)c1cccnc1Nc1ccc(F)cc1
70 | 114 to 115 °C | COc1ccc(C(=O)Nc2c(Cl)cncc2Cl)cc1OCCCCCCCCCCCc1ccccc1
71 | 348 to 349 °C | O=c1[nH]c(=Cc2ccc3ccccc3n2)c(=O)[nH]c1=Cc1ccc(Cl)cc1
72 | 168 to 170 °C | Cc1ccc2c(c1)C(=O)N(Nc1ccccc1)C2=O
73 | 179 °C | COc1cc(-c2nc3ccccc3n2Cc2ccccc2I)cc(OC)c1OC
74 | 88 to 89 °C | COC(=O)CCc1ccc(OCCC2Oc3ccccc3N(Cc3cccc(Cl)c3)C2=O)cc1 (stereo not given)
75 | 109 to 110 °C | Cc1oc(-c2ccccc2)nc1COc1ccc(Cn2cc(CCCCC(=O)O)c(-c3ccccc3)n2)cc1
76 | 125 to 126 °C | CC(C)(C)C(=O)OC1=CC(=O)C(=O)c2ccccc21
77 | 153 to 154 °C | Cc1cccnc1C(O)c1ccc(N)cc1 (stereo not given)
78 | 137 to 140 °C | NC(=O)Cc1c[nH]c2ccc(OCc3ccccc3)cc12
79 | 154 °C | O=C(O)C(=NO)C(c1ccc(OCc2ccccn2)cc1)c1ccc(OCc2ccccn2)cc1

Row | melting point | SMILES
80 | 128 to 129 °C | OC(Cn1cncn1)(c1ccccc1)c1ccccc1
81 | 186 to 187 °C | CCOC(=O)/C=C/c1ccc(C=Cc2nc(-c3ccc4ccccc4c3)oc2C)cc1
82 | 150 °C | COc1cccc(Oc2c(NS(=O)(=O)c3ccc(C(C)(C)C)cc3)ncnc2SCCO)c1
83 | 210 to 212 °C | C1=C(/C=C/c2ccccc2)CCN(Cc2c[nH]c3ncccc23)C1
84 | 152 to 154 °C | CS(=O)(=O)c1ccc(N2CCc3ccccc32)c([N+](=O)[O-])c1
85 | 160 to 162 °C | Cc1cccc(-c2nc(-c3ccc(F)cc3)sc2-c2ccnc(N)c2)c1
86 | 183 °C | Cc1csc2c1c(=O)oc(=O)n2Cc1ccccc1
87 | 165 to 166 °C | C=CCn1ccnc1C(O)(c1ccccc1)c1ccc(Cl)cc1 (stereo not given)
88 | 96 °C | Cn1c(=O)n(COc2ccc(Cl)cc2)c(=O)c2c1ncn2Cc1ccccc1
89 | 192 to 194 °C | CCCN1CCCC1CNS(=O)(=O)c1ccc(Nc2ccnc3cc(Cl)ccc23)cc1 (stereo not given)
90 | 138 to 140 °C | CN1CCN(c2ccccc2C=C2CCCN(c3ccc(Cl)c(Cl)c3)C2=O)CC1
91 | 131 °C | O=C(O)CCc1nn(-c2ccc(F)cc2)cc1-c1ccc(Cl)cc1
92 | 190 to 192 °C | NS(=O)(=O)c1ccc(NN=Cc2ccc(Br)cc2)cc1
93 | 181 to 182 °C | COC(=O)c1sc(C)c2nc(OC)n(Cc3ccc(-c4ccccc4C#N)cc3)c12
94 | 145 to 147 °C | CN(C)CCCCC1CCCCN1C(=O)N1c2ccccc2C(=O)Nc2cccnc21 (stereo not given)
95 | 94 °C | c1ccc(CNCCOc2ccc3ccccc3c2)cc1
